Reference: patent publication US20240374535A1, “COMPOSITIONS AND METHODS FOR TREATING BIOFILM DISORDERS AND INFECTIONS” (AHV International B.V., priority 2021, published 2024)

What was measured:
[1] = tested on: Staphylococcus epidermis ATCC 35984; experiment: MIC assay (planktonic growth inhibition, OD600); format: cell-based, S. epidermidis; conditions: 24 h at 37° C.
How it was run: (§1)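 Broth microdilution in MHB-II, two-fold series from 8 mM stock solution (Tween 80/DMSO co-diluted, 2.5% in top well). Inoculum from overnight TSA colonies adjusted to OD600 0.0008 (~10^6 CFU/mL); 24 h at 37° C., growth read as OD600; three independent experiments.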

[2] = tested on: Pseudomonas aeruginosa ATCC 27853; experiment: MIC assay (planktonic growth inhibition, OD600); format: cell-based, P. aeruginosa; conditions: Pseudomonas aeruginosa, ATCC27853, 24 h at 37° C.
How it was run: as §1

[3] = tested on: Staphylococcus epidermis ATCC 35984 biofilm; experiment: MBEC assay (biofilm eradication, CFU log reduction); format: cell-based, S. epidermidis; conditions: 48 h grown biofilm, 20 h treatment, CFU log reduction vs untreated
How it was run: (§2)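 Biofilms were grown 48 h static at 37 °C in TSB from inocula at OD600 0.2, then treated 20 h at 37 °C with 1, 0.5, 0.25 or 0.125 mM compound in saline (Tween 80 and DMSO each 0.63–0.08%), four replicates per condition. Resuspended biofilm was serially diluted and plated on TSA for 24 h; log CFU reduction versus untreated, with ≥1 counted as significant, in two independent experiments.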

[4] = tested on: Pseudomonas aeruginosa ATCC 27853 biofilm; experiment: as above; format: cell-based, P. aeruginosa; conditions: 48 h grown biofilm, 20 h treatment, CFU log reduction vs untreated
How it was run: as §2

[5] = tested on: cows with a SCC of more as 250.000 cells/ml; experiment: In vivo mastitis test: somatic cell count (SCC) in milk after a single oral tablet; design: species or system cow; conditions: single oral tablet (10 g), 60 days, FIG. 1
Description: Experiments were performed to examine the effect of compounds on the cell count or somatic cell count (SCC) in milk.
Somatic cell counts (SCC) is related to the amount of pathogens that are in the quarter visible for the immune system. The cell count of each cow was measured with the milk production registration (MPR). This MPR is done periodically every 30-40 days at all farms. The Somatic Cell Count (SCC) is a main indicator of milk quality. The majority of somatic cells are leukocytes (white blood cells)—which become present in increasing numbers in milk usually as an immune response to a mastitis-causing pathogen—and a small number of epithelial cells, which are milk-producing cells shed from inside of the udder when an infection occurs.
The SCC data was extracted from milk production registrations (MPRs). MPRs are databases showing all details (e.g. SCC) of the produced milk per individual cow. MPRs of the selected farms were available periodically. SCC is quantified as the number of cells per ml of milk. In general terms: an individual cow with a value for SCC of 100,000 or less indicates an ‘uninfected’ cow and there were no significant production losses due to subclinical mastitis. A threshold SCC above 250,000 indicates infection and counts between 100,000 to 250,000 indicate a high risk of infection.
The experiments were performed on a farm with 90 cows. Examination was performed on cell count with the above described tablets during 60 days.
Cows with a SCC of more as 250.000 cells/ml before treatment were selected for administration of a single tablet.

[6] = tested on: udder cleft wound; experiment: In vivo udder cleft dermatitis test: wound assessment after spray treatment; design: species or system cow
Description: An example of a biofilm-related disorder is Udder Cleft Dermatitis (UCD), which relates to a chronic wound. In this Example, di-alkyl thiosulfonates, dialkyl thiosulfinates and di-alkyl disulfides were tested for their effect on cows affected by UCD.
Experiments were performed to examine the effect of various sprays containing water (control), a test compound, or a reference compound (CTC spray, which contains chlorotetracycline hydrochloride, and was obtained from Dechra veterinary products).
0.35 mL of the spray was sprayed on an udder cleft wound per treatment. Treatments took place once a day at t=0, at t=3 days and t=6 days. In Table 6, the assessment qualifications that are used in Table 7, are explained.

Structure (SMILES): O=[SH](O)=S.c1ccc(-c2ccccc2)cc1 [Di-phenyl thiosulfonate, phenyl benzene thiosulfonate]
- MIC50 ([1]; minimal concentration reducing final OD600 by 50%, read-out: S. epidermidis MIC50): 1000 µM
- MIC90 ([1]; minimal concentration reducing final OD600 by 90%, read-out: S. epidermidis MIC90): 2000 µM
- MIC50 ([2]; minimal concentration reducing final OD600 by 50%, read-out: P. aeruginosa MIC50): 2000 µM
- MIC90 ([2]; minimal concentration reducing final OD600 by 90%, read-out: P. aeruginosa MIC90): 2000 µM
- S. epidermidis MBEC mM with log reduction ≥1 [3]: 2 mM
- P. aeruginosa MBEC mM with log reduction ≥1 [4]: >4 mM
- somatic cell count (SCC) of milk [5]: significantly decreased
- inflammation of the udder cleft wound after treatment ([6]; immediately after the treatment, later infection reduced and wound healed): fast inflammation reduction
- Conclusion (effect on udder cleft wound) ([6]; over 60 days, all cows of the group): Positive effect
